Measured values reported in the NIST ThermoML archive (doi:10.1016/j.tca.2012.07.004).
Numbers after ± are expanded uncertainties.

Columns and labels:
[1] = 101 kPa, Liquid; for mass density: Vibrating tube method; for viscosity: Vibrating wire viscometry; for speed of sound: ultrasonic interferometer
[2] = xn = mol fraction of the nth substance listed; details: 101 kPa, Liquid, x2 = 0; for mass density: Vibrating tube method; for viscosity: Vibrating wire viscometry; for speed of sound: ultrasonic interferometer

| Compound | mass density ([1]; 298.15 K) [kg/m3] | viscosity ([1]; 298.15 K) [mPa·s] | speed of sound ([1]; 298.15 K) [m/s] | mass density ([1]; 303.15 K) [kg/m3] | viscosity ([1]; 303.15 K) [mPa·s] | speed of sound ([1]; 303.15 K) [m/s] | mass density ([1]; 308.15 K) [kg/m3] | viscosity ([1]; 308.15 K) [mPa·s] | speed of sound ([1]; 308.15 K) [m/s] | mass density ([1]; 313.15 K) [kg/m3] | viscosity ([1]; 313.15 K) [mPa·s] | speed of sound ([1]; 313.15 K) [m/s] | mass density ([2]; 298.15 K) [kg/m3] | viscosity ([2]; 298.15 K) [mPa·s] | speed of sound ([2]; 298.15 K) [m/s] | mass density ([2]; 303.15 K) [kg/m3] | viscosity ([2]; 303.15 K) [mPa·s] | speed of sound ([2]; 303.15 K) [m/s] | mass density ([2]; 308.15 K) [kg/m3] | viscosity ([2]; 308.15 K) [mPa·s] | also measured |
| --- | --- | --- | --- | --- | --- | --- | --- | --- | --- | --- | --- | --- | --- | --- | --- | --- | --- | --- | --- | --- | --- |
| CC(=O)[O-].C[NH+](C)C [trimethylammonium acetate] | 1053.85 ± 0.35 | 2.76 ± 0.17 | 1544 ± 20 | 1049.87 ± 0.35 | 2.37 ± 0.14 | 1514 ± 20 | 1045.81 ± 0.35 | 2.06 ± 0.12 | 1508 ± 20 | 1041.7 ± 0.34 | 1.83 ± 0.11 | 1490 ± 20 | – | – | – | – | – | – | – | – | – |
| CN1CCCC1=O [N-methylpyrrolidone] + C[NH+](C)C.O=P([O-])(O)O | – | – | – | – | – | – | – | – | – | – | – | – | 1025.9 ± 0.32 | 1.66 ± 0.1 | 1572 ± 20 | 1023.74 ± 0.32 | 1.49 ± 0.09 | 1552 ± 20 | 1019.25 ± 0.32 | 1.39 ± 0.08 | speed of sound ([2]; 308.15 K): 1528 ± 20 m/s; mass density ([2]; 313.15 K): 1014.74 ± 0.31 kg/m3; viscosity ([2]; 313.15 K): 1.31 ± 0.08 mPa·s; speed of sound ([2]; 313.15 K): 1520 ± 20 m/s |
| CN1CCCC1=O [N-methylpyrrolidone] + CC(=O)[O-].C[NH+](C)C | – | – | – | – | – | – | – | – | – | – | – | – | 1025.9 ± 0.32 | 1.66 ± 0.1 | 1572 ± 20 | 1023.74 ± 0.32 | 1.49 ± 0.09 | 1552 ± 20 | 1019.25 ± 0.32 | 1.39 ± 0.08 | speed of sound ([2]; 308.15 K): 1528 ± 20 m/s; mass density ([2]; 313.15 K): 1014.74 ± 0.31 kg/m3; viscosity ([2]; 313.15 K): 1.31 ± 0.08 mPa·s; speed of sound ([2]; 313.15 K): 1520 ± 20 m/s |
| C[NH+](C)C.O=P([O-])(O)O [trimethylammonium dihydrogen phosphate] | 1353.61 ± 0.69 | 7.64 ± 0.46 | 1672 ± 20 | 1350.62 ± 0.68 | 6.46 ± 0.39 | 1660 ± 20 | 1347.59 ± 0.68 | 5.61 ± 0.34 | 1661 ± 20 | 1344.53 ± 0.68 | 5.07 ± 0.31 | 1664 ± 20 | – | – | – | – | – | – | – | – | – |
| CN1CCCC1=O [N-methylpyrrolidone] | 1025.9 ± 0.32 | 1.66 ± 0.1 | 1572 ± 20 | 1023.74 ± 0.32 | 1.49 ± 0.09 | 1552 ± 20 | 1019.25 ± 0.32 | 1.39 ± 0.08 | 1528 ± 20 | 1014.74 ± 0.31 | 1.31 ± 0.08 | 1520 ± 20 | – | – | – | – | – | – | – | – | – |
| CCN(CC)CC.O=P(O)(O)O [triethylammonium dihydrogen phosphate] | 1125.7 ± 0.43 | 64.31 ± 3.9 | 1794 ± 20 | 1124.68 ± 0.43 | 57.1 ± 3.4 | 1769 ± 20 | 1123.71 ± 0.42 | 49.53 ± 3 | 1757 ± 20 | 1122.37 ± 0.42 | 38.31 ± 2.3 | 1730 ± 20 | – | – | – | – | – | – | – | – | – |
| C[NH+](C)C.O=S(=O)([O-])O [trimethylammonium hydrogen sulfate] | 1467.58 ± 0.83 | 5.1 ± 0.31 | 1564 ± 20 | 1463.56 ± 0.82 | 4.48 ± 0.27 | 1560 ± 20 | 1463.5 ± 0.82 | 3.94 ± 0.24 | 1556 ± 20 | 1455.63 ± 0.82 | 3.16 ± 0.19 | 1552 ± 20 | – | – | – | – | – | – | – | – | – |
| CN1CCCC1=O [N-methylpyrrolidone] + CCN(CC)CC.O=P(O)(O)O | – | – | – | – | – | – | – | – | – | – | – | – | 1025.9 ± 0.32 | 1.66 ± 0.1 | 1572 ± 20 | 1023.74 ± 0.32 | 1.49 ± 0.09 | 1552 ± 20 | 1019.25 ± 0.32 | 1.39 ± 0.08 | speed of sound ([2]; 308.15 K): 1528 ± 20 m/s; mass density ([2]; 313.15 K): 1014.74 ± 0.31 kg/m3; viscosity ([2]; 313.15 K): 1.31 ± 0.08 mPa·s; speed of sound ([2]; 313.15 K): 1520 ± 20 m/s |
| CN1CCCC1=O [N-methylpyrrolidone] + C[NH+](C)C.O=S(=O)([O-])O | – | – | – | – | – | – | – | – | – | – | – | – | 1025.9 ± 0.3 | 1.66 ± 0.1 | 1572 ± 20 | 1023.74 ± 0.32 | 1.49 ± 0.09 | 1552 ± 20 | 1019.25 ± 0.32 | 1.39 ± 0.08 | speed of sound ([2]; 308.15 K): 1528 ± 20 m/s; mass density ([2]; 313.15 K): 1014.74 ± 0.31 kg/m3; viscosity ([2]; 313.15 K): 1.31 ± 0.08 mPa·s; speed of sound ([2]; 313.15 K): 1520 ± 20 m/s |
